Measured values as given in publication PMC12238723, “Phase I Clinical Trial of CVL218, a Novel PARP1/2 Inhibitor, in Patients with Advanced Solid Tumors” (MedComm, 2025).

Test system: patients with advanced solid tumors
Assay: Treatment-related adverse events (CTCAE v5.0), phase I dose escalation
Type: in vivo
Description: This study was a single‐arm, dose‐escalation phase I trial conducted in Sun Yat‐sen University Cancer Center in China. This study assessed CVL218 in patients with histologically or cytologically confirmed advanced solid tumors who were in PD after standard therapeutic regimens or lacked standard treatment options. Inclusion criteria included: age 18–75 years; with at least one measurable and evaluable target lesion per Response Evaluation Criteria in Solid Tumors 1.1 (RECIST 1.1); ECOG performance status of 0 or 1; adequate hematological, renal, cardiac, and hepatic functions and a life expectancy ≥12 weeks. Key exclusion criteria included prior usage of PARP inhibitors; allergic to the research drug or its components; with active, unstable systemic diseases or active, uncontrolled infection; a history of other malignancies within 5 years, and pregnant or lactating women.
CVL218 was administered orally, and this dose‐escalation trial included nine dose levels: 100 mg QD (50 mg BID), 200 mg QD (100 mg BID), 400 mg QD (200 mg BID), 700 mg QD (350 mg BID), 1000 mg QD (500 mg BID), 1200 mg QD (600 mg BID), 1400 mg QD (700 mg BID), 1700 mg QD (850 mg BID), and 2000 mg QD (1000 mg BID). Patients enrolled in the study received a single oral dose on the first day, followed by continuous multiple dosing (twice a day taking 12 h apart) after 72 h, with the treatment cycle lasting 4 weeks. The period during which patients received a single dose is designated as cycle 0 (C0), lasting 72 h. After this period, patients begin multiple dosing, referred to as cycle 1 (C1). An initial accelerated titration design was employed for the three lowest dose groups, and the “3+3” design was applied starting with the 300 mg BID cohort.
The primary objectives were to assess safety and tolerability as well as to determine the MTD, DLT, and dose recommended for further study. DLT was defined as any of the following events occurring during cycle 0 (including 72 h wash‐out period after a single dose) and cycle 1 per Common Terminology Criteria for Adverse Events (CTCAE) version 5.0: grade 4 anemia; grade 4 neutropenia; grade 3 neutropenia with fever ≥38.5°C; grade 4 thrombocytopenia; grade 3 thrombocytopenia associated with bleeding; grade ≥2 neurotoxicity; any other grade ≥3 nonhematological toxicities (excluding alopecia). The secondary objectives were to assess the PK and preliminary efficacy of CVL218.
Subjects who received at least one dose of CVL218 with postadministration safety records were included in safety analysis set. Subjects who received at least one dose of CVL218 with at least one evaluable PK parameter were included in PK analysis set. Per‐protocol set were used for efficacy analysis. Descriptive statistics of safety were presented per CTCAE v5.0. The PK parameters T max and T 1/2 were shown as the median (min, max) and mean ± SD, respectively. A two‐sided p < 0.05 was considered to indicate statistical significance. Statistical analysis was performed by using GraphPad prism 8.0.2 and R‐4.3.3.

## CNCc1ccc(-c2cc3cc(F)cc(C(N)=O)c3o2)cc1.Cl [CVL218]
850 mg BID, ≥G3
  Musculoskeletal discomfort: 0 n (%)
  Musculoskeletal disorders: 0 n (%)
  Nausea: 0 n (%)
  Nervous system disorders: 0 n (%)
  Neutrophil count decreased: 0 n (%)
  Neutrophil count increased: 0 n (%)
  Palpitations: 0 n (%)
  Protein urine present: 0 n (%)
  Proteinuria: 0 n (%)
  Rash: 0 n (%)
  Renal & urinary disorders: 0 n (%)
  Renal failure: 0 n (%)
  Reproductive disorders: 0 n (%)
  Skin disorders: 0 n (%)
  Urinary occult blood positive: 0 n (%)
  Vomiting: 0 n (%)
  WBC count decreased: 0 n (%)
  WBC count increased: 0 n (%)
All (N = 26), ALL
  ALT increased: 4 (15.4) n (%)
  AST increased: 2 (7.7) n (%)
  Abdominal distension: 1 (3.8) n (%)
  Abdominal pain: 1 (3.8) n (%)
  Abdominal pain upper: 1 (3.8) n (%)
  Amylase increased: 2 (7.7) n (%)
  Anemia: 2 (7.7) n (%)
  Any AE related to study drug: 26 (100) n (%)
  Asthenia: 2 (7.7) n (%)
  Blood creatinine increased: 5 (19.2) n (%)
  Blood system disorders: 2 (7.7) n (%)
  Blood triglycerides increased: 1 (3.8) n (%)
  Blood urea increased: 1 (3.8) n (%)
  Cardiac disorders: 1 (3.8) n (%)
  Chest discomfort: 2 (7.7) n (%)
  Constipation: 2 (7.7) n (%)
  Decreased appetite: 5 (19.2) n (%)
  Diarrhea: 10 (38.5) n (%)
  Dizziness: 3 (11.5) n (%)
  Erectile dysfunction: 1 (3.8) n (%)
  Gastrointestinal disorders: 24 (92.3) n (%)
  General disorders: 4 (15.4) n (%)
  Gingival bleeding: 1 (3.8) n (%)
  Granulocyte count increased: 1 (3.8) n (%)
  Headache: 2 (7.7) n (%)
  Hypoalbuminemia: 2 (7.7) n (%)
  Infusion site pain: 1 (3.8) n (%)
  Laboratory test disorders: 15 (57.7) n (%)
  Limb discomfort: 1 (3.8) n (%)
  Lipase increased: 6 (23.1) n (%)
  Metabolic disorders: 6 (23.1) n (%)
  Musculoskeletal discomfort: 1 (3.8) n (%)
  Musculoskeletal disorders: 1 (3.8) n (%)
  Nausea: 20 (76.9) n (%)
  Nervous system disorders: 4 (15.4) n (%)
  Neutrophil count decreased: 1 (3.8) n (%)
  Neutrophil count increased: 2 (7.7) n (%)
  Palpitations: 1 (3.8) n (%)
  Protein urine present: 1 (3.8) n (%)
  Proteinuria: 6 (23.1) n (%)
  Rash: 3 (11.5) n (%)
  Renal & urinary disorders: 7 (26.9) n (%)
  Renal failure: 3 (11.5) n (%)
  Reproductive disorders: 1 (3.8) n (%)
  Skin disorders: 3 (11.5) n (%)
  Urinary occult blood positive: 1 (3.8) n (%)
  Vomiting: 20 (76.9) n (%)
  WBC count decreased: 1 (3.8) n (%)
  WBC count increased: 2 (7.7) n (%)
All (N = 26), ≥G3
  ALT increased: 0 n (%)
  AST increased: 0 n (%)
  Abdominal distension: 0 n (%)
  Abdominal pain: 1 (3.8) n (%)
  Abdominal pain upper: 0 n (%)
  Amylase increased: 0 n (%)
  Anemia: 0 n (%)
  Any AE related to study drug: 4 (15.4) n (%)
  Asthenia: 0 n (%)
  Blood creatinine increased: 3 (11.5) n (%)
  Blood system disorders: 0 n (%)
  Blood triglycerides increased: 0 n (%)
  Blood urea increased: 1 (3.8) n (%)
  Cardiac disorders: 0 n (%)
  Chest discomfort: 0 n (%)
  Constipation: 0 n (%)
  Decreased appetite: 0 n (%)
  Diarrhea: 0 n (%)
  Dizziness: 0 n (%)
  Erectile dysfunction: 0 n (%)
  Gastrointestinal disorders: 1 (3.8) n (%)
  General disorders: 0 n (%)
  Gingival bleeding: 0 n (%)
  Granulocyte count increased: 0 n (%)
  Headache: 0 n (%)
  Hypoalbuminemia: 0 n (%)
  Infusion site pain: 0 n (%)
  Laboratory test disorders: 4 (15.4) n (%)
  Limb discomfort: 0 n (%)
  Lipase increased: 1 (3.8) n (%)
  Metabolic disorders: 0 n (%)
  Musculoskeletal discomfort: 0 n (%)
  Musculoskeletal disorders: 0 n (%)
  Nausea: 0 n (%)
  Nervous system disorders: 0 n (%)
  Neutrophil count decreased: 0 n (%)
  Neutrophil count increased: 0 n (%)
  Palpitations: 0 n (%)
  Protein urine present: 0 n (%)
  Proteinuria: 0 n (%)
  Rash: 0 n (%)
  Renal & urinary disorders: 0 n (%)
  Renal failure: 0 n (%)
  Reproductive disorders: 0 n (%)
  Skin disorders: 0 n (%)
  Urinary occult blood positive: 0 n (%)
  Vomiting: 0 n (%)
  WBC count decreased: 0 n (%)
  WBC count increased: 0 n (%)
All 26 patients
  TRAE of any grade: diarrhea: 38.5%
  TRAE of any grade: lipase increased: 23.1%
  TRAE of any grade: nausea: 76.9%
  TRAE of any grade: proteinuria: 23.1%
  TRAE of any grade: vomiting: 76.9%
  patients with ≥grade 3 TRAEs: 15.4%
  ≥grade 3 TRAE: abdominal pain: 3.8%
In vivo
  anemia of grade 3 or more severe: None of the anemias were of grade 3 or more severe
  grade ≥3 gastrointestinal AEs: 3.8%
  patients with gastrointestinal reactions: 92.3%
  ≥grade 3 TRAE: blood creatinine increased: 11.5%
  ≥grade 3 TRAE: blood urea increased: 3.8%
  ≥grade 3 TRAE: lipase increased: 3.8%
